Measurements taken from paper PMC5142825 (Bioorganic & medicinal chemistry letters, 2016).
Where two headings read alike, the source gives them in different places. One block for each compound: values may come before it.

How the values were obtained:
[1] = target: T1, Porcn (Mus musculus, UniProt Q9JJJ7); assay: Suppression of Wnt signaling in L-Wnt-STF cells; type: cell-based
T1 sequence (Q9JJJ7 1-461): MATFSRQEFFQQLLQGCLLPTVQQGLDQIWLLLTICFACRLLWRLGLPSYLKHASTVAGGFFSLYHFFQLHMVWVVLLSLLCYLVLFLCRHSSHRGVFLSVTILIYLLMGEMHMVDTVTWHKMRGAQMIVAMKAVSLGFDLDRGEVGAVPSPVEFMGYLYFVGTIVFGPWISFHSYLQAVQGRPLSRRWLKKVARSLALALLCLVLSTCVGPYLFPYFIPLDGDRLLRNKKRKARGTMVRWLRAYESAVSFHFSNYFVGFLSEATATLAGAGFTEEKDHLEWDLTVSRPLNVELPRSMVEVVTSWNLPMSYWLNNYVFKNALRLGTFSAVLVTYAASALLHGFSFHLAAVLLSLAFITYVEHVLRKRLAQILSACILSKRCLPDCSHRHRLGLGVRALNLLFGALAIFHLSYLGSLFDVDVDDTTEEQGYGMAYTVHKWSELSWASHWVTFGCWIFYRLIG

[2] = Metabolic stability in murine liver S9 fractions; type: in vitro ADME; settings: for stability (in words): compared with 6
[3] = Stability in murine plasma; type: in vitro ADME; settings: compared with 6
[4] = target: T1, Porcn; settings: L-Wnt-STF cells; cited from earlier work
[5] = human plasma; cited from earlier work
[6] = murine plasma; cited from earlier work
[7] = murine liver S9 fractions; cited from earlier work
[8] = test system: Dvl2/3 phosphorylation in HeLa cells; assay: Western blot of Dvl2/3 phosphorylation in HeLa cells; type: cell-based; settings: 24 h incubation
[9] = test system: LRP6 phosphorylation in HeLa cells; assay: Western blot of LRP6 phosphorylation in HeLa cells; type: cell-based; settings: 24 h incubation

fold decrease of potency relative to 17 ([1]; L-Wnt-STF cells): 5 fold
SMILES: Cc1ccc2nc(NC(=O)CSc3nc4c(c(=O)n3-c3ccccc3)SCC4)sc2c1 [IWP-2, reference compound]

activity against Wnt signaling ([1]; at low micromolar concentrations): inactive
SMILES: O=C(CSc1nnc(-c2ccncc2)o1)Nc1ccc(-c2cccnc2)cc1 [IWP-L1]

stability (in words) [2]: low stability
EC50 [1]: 0.3 nM
stability (in words) [3]: low stability
SMILES: O=C(CSc1nnc(-c2ccncc2)n1-c1ccccc1)Nc1ccc(-c2cccnc2)cc1 [IWP-L2]

SMILES: O=C(CSc1nc2c(c(=O)n1-c1ccccc1)SCC2)Nc1ccc(-c2ccccc2)cn1 [IWP-L6]
fold more potent than 1 (IWP-2) [4]: 60 fold
stability (in words) [5]: good stability
Half-life [6]: <5 min
Half-life [7]: 26 min

stability (in words) [2]: much more stable
stability (in words) [3]: much more stable
SMILES: O=C(Cn1cc(-c2ccncc2)nn1)Nc1ccc(-c2ccccc2)cn1 [IWP-N3]

degradation after incubation ([2]; 4 h): did not observe any degradation
stability (in words) [2]: much more stable
times more potent than LGK974 ([1]; L-Wnt-STF cells): 2.5 times
stability (in words) [3]: much more stable
SMILES: O=C(Cn1nnc(-c2ccncc2)c1-c1ccccc1)Nc1ccc(-c2ccccc2)cn1 [IWP-O1]
phosphorylation of Dvl2/3 [8]: effectively suppressed
phosphorylation of LRP6 [9]: suppressed

EC50 [1]: 0.2 nM
SMILES: Cc1cc(-c2ncc(CC(=O)Nc3ccc(-c4cnccn4)cn3)cc2C)ccn1 [LGK974, reference compound]
